From patent US12551479B2, “Acyl-protein thioesterase inhibitor for the treatment and/or prevention of Huntington's disease” (UNIVERSITÉ GRENOBLE ALPES, priority 2019, dated 2026)

Tests used:
[1] = test system: brain palmitoylated proteins; assay: ABE (Acyl-Biotin-Exchange) assay on brain lysate; assay type: in vivo, mice
Protocol: In FIG. 4D, the graphic representation of the experiment set up to test the efficacy of the molecule to increase the level of palmitoylation in the brain 30 minutes after injection can be visualized. […] Brains were mechanically lysed in ice-cold buffer (1% IGEPAL CA-630; 50 mM Tris-HCl pH 7.5, 150 mM NaCl, 10% glycerol) containing 1:100 protease inhibitor cocktail (Sigma Aldrich P8340), 1 mM PMSF, 1:200 phosphatase inhibitor (Sigma Aldrich P5726), and 50 mM NEM (Sigma Aldrich E3876) to block free cystein. Brain lysates were rotated at 4° C. for 30 minutes before insoluble material was removed by centrifugation at 15.000 rpm for 10 minutes. Lysates were precleared by incubation with Dynabeads M-280 Streptavidin (Invitrogen 112.05D) for 30 minutes at 4° C. on the wheel. Proteins from precleared samples were then precipitated using chloroform-methanol assay. Each pellet was divided and resuspended in +HAM (2:3 of the pellet) (lysis buffer containing 1 mM HAM (Sigma 46780-4)) or −HAM (1:3 of the pellet) during 1 hour at room temperature on the wheel. Proteins were precipitated with chloroform-methanol method and the pellets were resuspended in Biotin-BMCC buffer (lysis buffer with 5 μM EZ-Link™ Biotin-BMCC (Thermo Fisher 21900)) for 1 hour at room temperature on the wheel. […]

Hdh^CAG140/+ mice [2] = assay: Open Field test; assay type: in vivo, mouse; conditions: 0.3 mg/kg/day subcutaneous infusion
Protocol: (§1) Mice littermates were grouped into mixed treatment groups. Males and females were 6 months of age at the beginning of the treatment. For each specific test, all experimental groups were tested on the same day, during the light phase and between Days 16 and 28 of treatment. Prior to testing, mice were acclimatized to the test room for a period of 30 minutes. Treatments were randomly assigned and behavioral tests were performed 12 days before the end of the delivery of the treatment. […] Mice were excluded from analysis if their performance was calculated as a significant outlier by the Grubb test. One mouse was excluded based on these criteria. Mouse weights were measured prior to the start of treatment and until the end of testing.
Spontaneous locomotion was measured as the total distance traveled and general anxiety as the number of entries into the internal area. The Open Field test was conducted in a opaque Plexiglas square chamber (50×50 cm) and the internal chamber was defined with a quadrangular shape of 12.50×12.50 cm. The mice were filmed for 60 minutes. The distance traveled and the number of entries into the internal chamber per 5-minute interval were measured using ViewPoint tracking software.

Hdh^CAG140/+ mice [3] = assay: Rotarod test; assay type: in vivo, mouse; conditions: Hdh^CAG/+ mice
Protocol: as §1
The Rotarod apparatus was used to measure motor coordination and balance. Rotarod test was performed over 6 consecutive days, with 3 days of accelerated rotarod and then 3 days of fixed rotarod. […] The latency and speed at which mice fall off from the rotarod were measured up to 300 sec. For a fixed rotarod, mice were evaluated for 3 trials at 10, 15, and 20 rpm on days 4, 5, and 6, respectively. […] Data are expressed as the average of the 3 trials.

ERK phosphorylation = assay: Postsynaptic signaling: phosphoERK immunopositive striatal neurons after glycine/strychnine stimulation; assay type: cell-based, mouse; conditions: Hdh^CAG/+ neurons, 1 μM daily; glycine/strychnine 15 minutes
Protocol: They used ERK phosphorylation as the readout of the postsynaptic signaling. […] The inventors stimulated cortical neurons for 15 minutes with glycine/strychnine and quantified the percentage of striatal neurons immunopositive for phosphoERK (FIG. 3J).

[4] = test system: cortical neurons from WT and Hdh^CAG/+ mice; assay: BDNF-mCherry axonal transport in corticostriatal network on microfluidic device; assay type: cell-based, mouse
Protocol: Referring to FIG. 3A, the inventors have reproduced the corticostriatal network in vitro on a microfluidic device consisting of two neuronal chambers that are connected via microchannels. Experiments are performed over a period of time ranging from 2 to 12 days in vitro (Days in vitro), i.e. DIV2 to DIV12, and a fixation/acquisition at DIV12.
For striatal StHdh cells, acute treatment was performed at 10 μM for 1 hour before and during the acquisition time. For neurons within the microchambers, treatments were started at DIV2 until DIV12 every day at 1 μM in each compartment of the microfluidic device.
The inventors then investigated whether ML-348 is able to restore dysfunctions of the corticostriatal network in Huntington's disease. Indeed, corticostriatal circuit is particularly altered in Huntington's disease, which manifests itself by a dysfunction and a degeneration of both the striatal neurons and their corticostriatal afferences. They developed a microfluidic-based approach that enables the reconstruction of a time- and space-controlled neuronal network compatible with fast spinning confocal videomicroscopy. This system uses a silicon polymer-based microfluidic device composed of two fluidically-isolated neuronal chambers that are connected via a set of thin microchannels through which neurites can grow and contact each other in an intermediate synaptic compartment. Using primary neuron cultures, they reconstituted a corticostriatal network in which cortical neurons project to striatal target neurons through oriented axodendritic connections (FIG. 3A). These devices are compatible with drug treatment and therefore can be used to test pharmacological agents in vitro on this functional circuit.
Cortical neurons from WT and Hdh^CAG/+ mice were infected with BDNF-mCherry lentivirus and acquisitions were performed at Day 12 in the distal part of the long microchannels to analyze axonal transport of BDNF (FIG. 3B). As expected, defects in axonal transport in HD (Huntington's disease) neurons were identified for both the anterograde and retrograde transport velocities, and also in the number of vesicles travelling along the microtubules (FIG. 3C-3E). These effects lead to a reduction of the linear net flux with no impact one the directionality of the vesicles (FIGS. 3F and 3G).

[5] = Hdh^CAG/+ network, 1 μM daily DIV2 to DIV12

O=C(CN1CCN(C(=O)c2ccco2)CC1)Nc1cc(C(F)(F)F)ccc1Cl [ML-348]
palmitoylation in brain (ABE, +HAM vs −HAM) ([1]; HdH^CAG/+ mice, 28 days of treatment, 0.3 mg/kg/day subcutaneous osmotic pump): increase palmitoylation
level of palmitoylation in brain lysates ([1]; mice injected with 0.3 mg/kg, 30 minutes after injection): increased
total distance traveled over 60 minutes (spontaneous locomotion) (Hdh^CAG140/+ mice [2]): no effect
number of entries into the central area over 60 minutes (Hdh^CAG140/+ mice [2]; wild-type and Hdh^CAG/+ mice): no significant effect
average speed achieved on accelerated rotarod (Hdh^CAG140/+ mice [3]; 4 to 40 rpm in 600, 300, 120 s, statistically significant in the 300 s condition): recover motor coordination close to that of wild-type mice
performance on fixed speed rotarod (Hdh^CAG140/+ mice [3]; constant speed 10 and 15 rpm): significantly improved the performances
percentage of immunopositive phosphoERK cells in the postsynaptic space (ERK phosphorylation): restore postsynaptic signaling to values encountered in wild-type neurons
anterograde and retrograde transport velocities of BDNF-mCherry [4, 5]: restored to values approximately equal to those of the wild type
linear net flow of BDNF-mCherry vesicles [4, 5]: restored to values approximately equal to those of the wild type
number of anterograde and retrograde vesicles moving over 100 μm for 30 seconds [4, 5]: restored to values approximately equal to those of the wild type
effect on BDNF trafficking in WT neurons ([4]; WT neurons, 1 μM daily): inhibitory effect on BDNF trafficking
